The star is where a group is joined. Biotin = O=C1N[C@H]2[C@H](CS[C@H]2CCCCC(=O)*)N1
Assays:
[1] = system: female Sprague–Dawley rats; experiment: In vivo acute systemic toxicity of SAPs, subcutaneous injection; design: species or system Rattus norvegicus; conditions: for Body weights at the beginning of the experiment (means) / Body weight at the end of the experiment (means): single s.c. injection 10 mL/kg, mean ± SD, n = 5; for Body weights at the beginning of the experiment (means): day 0; for Body weight at the end of the experiment (means): day 5
Description: The general guidance from the ISO10993 to Biological evaluation of medical devices was followed. Animals were housed in plastic cages with free access to drinking water and a pelleted basal diet under controlled conditions of temperature (22 °C ± 3 °C), humidity (50 ± 10%) and light (12/12 h light/dark cycle). Rats were quarantined for the first 7 days and randomly divided into experimental and control groups. All animals were bred and maintained at CIBA (Biomedical Research Center of Aragon; Department of Experimental Surgery). Animal experimentation was approved by the Ethics Committee for Animal Experimentation from the University of Zaragoza (protocol number PI31/22), and all authors complied with the ARRIVE guidelines.SAPs or electrospun mats, empty micro-channels, and HS-filled micro-channels were subcutaneously administered to female Sprague–Dawley rats (Rattus norvegicus) 7 weeks old, non-pregnant, and nulliparous. The concentration of each SAP was: HS: 1%, 68: 3%, 46: 5%, C1: 3%, 65L: 3% and B42: 1%. On the day before administration, the animals were weighed, and the hair of their thoracic back was shaved. On day 1, the different SAPs were administered in one single dose by subcutaneous injection to each rat corresponding to each group. To devices, a skin incision of about 1 cm and subcutaneous dissection were performed under sterile conditions. Then, the products provided were introduced into the subcutaneous space, one piece per animal. Animals were weighed. Animals were euthanized by trained personnel using medical-grade Carbon dioxide (CO2). CO2 inhalation is the most common method of euthanasia used for small animals (i.e., mice, rats, guinea pigs, and hamsters). It is considered an acceptable euthanasia agent for small animals when properly administered. It was accepted by the Ethics Committee for Animal Experimentation from the University of Zaragoza (protocol number PI31/22). For histological assessment, lung, liver, spleen, kidneys, and duodenum were removed from rats, fixed with 4% paraformaldehyde, and embedded in paraffin. Sections from these samples were stained with hematoxylin and eosin (H&E). Blood samples were drawn at the end of the study by cardiac puncture. They were analysed with VetScan V2.
Data are expressed by mean ± standard deviation of the mean. Body weight comparison between groups was assessed using the repeated measures two-way ANOVA test. Bonferroni posthoc multiple comparisons were also used. Analysis of biochemical parameters was made with one-way ANOVA. They were performed using GraphPad Prism 8 (8.0.2).

[2] = system: Mouse Embryonic Fibroblasts (MEFs); experiment: Scratch wound (wound healing) assay, fibroblasts; format: cell-based; conditions: MEF fibroblasts, 0.01 mg/mL, IncuCyte scan every 4 h; three independent experiments
Description: Prior to initiating the assay, cells were grown to confluence in a 96-well plate at 37 °C in an atmosphere of 5% CO2 and, with the help of a 96-pin IncuCyte® Wound Maker simultaneously created precise and reproducible wounds in all wells of a 96-well plate by gently removing the cells from the confluent monolayer. After wounding, immediately aspirate the media from each well and wash the cells twice with culture media (100 µL/well). After washing, 100 µL of media containing 0.01 mg/mL of the appropriate agent was added to the corresponding well, and the plate was placed inside the IncuCyte. Assay plates were then equilibrated within the IncuCyte® for a minimum of 15 min before the first scan. The software was set to scan the plate every 4 h for migration assays.

[3] = system: TK6 human lymphoblastoid cell line; experiment: Thymidine kinase gene mutation assay (TK GMA); format: cell-based; conditions: TK6 cells, 4 h exposure, negative control 5.4 × 10^–6
Description: (§1) The general guidance from OECD TG 487 and 490 were followed[26],[41]. TK6 cell suspensions were treated with serially diluted SAPs molecules at 37 °C for 4 h, washed and resuspended in fresh medium, and cultured in new flasks for the MN and TK assays. We conducted the MN test and the TK mutation assay 48 h and 72 h later, respectively.
To measure genotoxicity, cells were subcultured at a maximum density of 2.5 × 10^5 cells/mL (at most 20 × 0^6 cells) for 3 additional days to allow phenotypic expression of the TK gene prior to mutant selection. Forty-eight hours after treatment, the cells were prepared for the MN assay. […] At least 2000 intact cells for each treatment were examined, and the cells containing MN were scored. Cells containing one or more micronuclei were recorded as micronucleated cells. […] The MN frequencies between non-treated and treated cells and the concentration–response relationship were statistically analyzed. […]
The cultures were maintained for another 24 h to allow phenotypic expression prior to plating for TK assay to determine the mutant fractions. […] Mutation frequencies (MFs) were finally calculated from cells grown in TFT selection medium or non-selection medium (for 7 days) via the Poisson distribution method. […] Changes in MFs relative to the negative controls (fold-change) were calculated and expressed graphically.

[4] = system: TK6 human lymphoblastoid cell line; experiment: In vitro micronucleus (MN) assay; format: cell-based; conditions: 4 h exposure, scored 48 h after exposure, 2000 cells per culture, three independent experiments
Description: as §1
To measure genotoxicity, cells were subcultured at a maximum density of 2.5 × 10^5 cells/mL (at most 20 × 0^6 cells) for 3 additional days to allow phenotypic expression of the TK gene prior to mutant selection. Forty-eight hours after treatment, the cells were prepared for the MN assay. Briefly, a small portion of cell culture from the flask was transferred to a 15 mL tube and centrifuged at 1200 rpm for 5 min at RT. The supernatant was then removed, and the pelleted cells were resuspended in PBS and placed in a cytospin funnel where cells were cytospun for 4 min at 900 rpm on microscope coverslips. A Diff-Quik staining was performed for microscope scoring. At least 2000 intact cells for each treatment were examined, and the cells containing MN were scored. Cells containing one or more micronuclei were recorded as micronucleated cells. […] The MN frequencies between non-treated and treated cells and the concentration–response relationship were statistically analyzed. […]

[5] = rat blood at day 5, VetScan V2, one-way ANOVA, within expected reference values

| Compound | globulin blood tests (GLOB) compared with the control group [1, 5] | Body weights at the beginning of the experiment (means) ([1]; rats) [g] | Body weight at the end of the experiment (means) ([1]; rats) [g] | cell migration versus control (area under relative wound density % vs time curve) [2] | Sodium blood test (NA+) compared with the control group [1, 5] | albumin (ALB) levels compared with the control group ([1]; rat blood, cardiac puncture at day 5, VetScan V2, one-way ANOVA, all group means incl. control slightly above reference) | body weight evolution versus control group ([1]; rats, s.c. 10 mL/kg, days 0, 2, 5, two-way ANOVA, p = 0.03, no significant change at single time points) | mutant frequency (MF) ([3]; Mit C 8.3 µg/mL (positive control)) | mutant frequency (MF) ([3]; Mit C 25 µg/mL (positive control)) | percentage of micronucleated cells versus negative control [4] |
| --- | --- | --- | --- | --- | --- | --- | --- | --- | --- | --- |
| FAQRVPPGGG(LDLK)3-CONH2 [compound 46] | increased | 250.5 ± 9.10 | 265.2 ± 8.20 | reduced cell migration |  |  |  |  |  |  |
| Ac-FAQRVPPGGG(LDLD)3-CONH2 [compound 68] |  | 238.1 ± 8.05 | 247.9 ± 7.60 |  | increased | Significant higher | significantly different |  |  |  |
| CO[C@@]12[C@H](COC(N)=O)C3=C(C(=O)C(C)=C(N)C3=O)N1C[C@@H]1N[C@@H]12 [Mit C, Mitomycin C] |  |  |  |  |  |  |  | 14.6 × 10^–6 | 175.3 × 10^–6 | significant increase |
| Biotin-GGGAFASAKA-NH2 [B42] |  | 243.8 ± 9.10 | 260.8 ± 10.9 |  |  |  |  |  |  |  |
